According to patent US20020168365A1, “Method for modulating granzyme B uptake and for identifying modulators thereof” (priority 2000, published 2002):

Experiments:
[1] = grB enzymatic activity (ASPase assay); type: biochemical, human
Source text: Human grB was purified from the cytolytic granules of YT-Indy cells as described previously (Caputo et al., 1999). GrB was derivatized with sulfo-NHS-biotin (Pierce) or OG 488 (Molecular Probes) as per the manufacturer's directions for labeling protein. Derivatized grB was separated from unbound probe by passing the material through a Sephadex G-25 column (HiTrapθ Desalting column, Pharmacia Biotech) with saline or phosphate-buffered saline (PBS) as the buffer. Typically the concentration of unlabeled grB was ˜50 μg/ml, whereas the estimated concentration of derivatized material was ˜5 μg/ml. GrB was assayed for enzymatic activity using an ASPase assay as previously described (Caputo et al., 1993).

Jurkat cells = test: TUNEL and annexin V apoptosis assays with grB and AD; type: cell-based, human
Description: (§1) GrB was treated for 1 hr at 37° C. in a phosphate-free (saline) or a high-phosphate (64.5 mM Na2HPO4.7H2O, 21 mM KH2PO4) buffer with calf intestinal alkaline phosphatase (1-10 U), 20 nM of the 37 kDa catalytic subunit of recombinant protein phosphatase-1 (Bagu et al, 1997), or with vehicle control. Cells were then incubated with the treated grB at 4° C. for 30-60 min. For the TUNEL or annexin V assays, cells were then washed twice before incubation at 37° C. with AD.
M6P and various other monosaccharides at different concentrations were added to cells for 15 min at 4° C. before the addition of labeled grB, or at room temperature before the addition of grB and AD.
GrB was incubated with sCI-MPR at various concentrations in PBS/0.1% BSA for 30 min at 4° C. Subsequently, cells were incubated with grB/sCI-MPR for 30-60 min at 4° C. and washed twice, before analysis of binding, or before the addition of AD for TUNEL and annexin V analysis.
For the in vitro killing assays, 10 pfu per cell of replication-deficient adenovirus (AD) were added subsequent to grB addition. Analysis of DNA fragmentation by TUNEL analysis has been described previously (Heibein et al., 1999). TUNEL materials (Roche Diagnostics) were used as per the manufacturer's instructions. Phosphatidylserine externalization was measured as previously described (Heibein et al., 1999) using annexin V-FITC (PharMingen). Percent specific TUNEL/annexin V positive cells was calculated as: [(% positive labeling cells with grB and AD-% positive labeling cells without grB and AD)/(100-% positive labeling cells without grB and AD)]×100.
Cells were resuspended at 10^6 cells/ml in 0.1% BSA/DMEM. Adenovirus (10 PFU/cell) and granzyme B (grB) were added directly to the cell suspension. Cells were incubated at 37° C. for 3 h. For staurosporine killing, cells were resuspended at 10^6 cells/ml in their normal growth medium and staurosporine (2.5 μM) was added directly to the cell suspension. Cells were incubated at 37° C. for 2, 4 and 8 h.
(§2) DNA fragmentation was monitored by flow cytometric analysis via the terminal deoxynucleotidyltransferase-mediated dUTP-biotin nick end labeling (TUNEL) method. Flow cytometric analysis was performed on a Becton Dickinson FACScanθ flow cytometer equipped with an argon-ion laser with 15 mW of excitation at 488 nm. Emission wavelengths were detected through the FL1 channel. Data were acquired on 10,000 cells per sample with light scatter signals at linear gain and fluorescence signals at logarithmic gain. Percent specific TUNEL positive cells was calculated as follows: [(% positive labeling cells with grB and AD−% positive labeling cells without grB and AD)/(AD−% positive labeling cells without grB and AD)]×100.
as §2, with “Phosphatidylserine externalization” for “DNA fragmentation”, “monitored using the ApoAlertθ annexin V apoptosis kit (Clontech) according to the protocol provided” for “monitored”, “by” for “by flow cytometric analysis via”, “manufacturer.” for “terminal deoxynucleotidyltransferase-mediated dUTP-biotin nick end labeling (TUNEL) method.”, “Annexin V” for “TUNEL”

[2] = tested on: L cells and the MPR-transfected L cell lines; test: GrB binding assay (flow cytometry); design: species or system murine; conditions: grB treated with alkaline phosphatase in the absence of phosphate
Description: Cells (1-2×10^5) were washed twice and resuspended in buffer before the addition of grB-biotin or -OG in a final volume of 20 μl for a 30-60 min incubation and washed again twice. In the case of grB-biotin, cells were then incubated with streptavidin-cychrome for 20 min and washed twice. Unless otherwise indicated, ˜25 ng grB-biotin or -OG was used to label cells. All steps of the assay were carried out at 4° C. to prevent intracellular uptake of grB. PBS/0.1% BSA buffer was used throughout the procedure. In some cases, results are presented as the relative MFI, which represents the MFI of the grB-labeled population minus the MFI of the unlabeled population.
as §1

[3] = tested on: breast carcinoma cell lines (T47-D, MDA-MB-231, SK-BR-3, MCF-7); test: grB/AD-mediated apoptosis (TUNEL, annexin V) in carcinoma cell lines; type: cell-based, human
Description: Cells were resuspended at 10^6 cells/ml in 0.1% BSA/DMEM. Adenovirus (10 PFU/cell) and granzyme B (grB) were added directly to the cell suspension. Cells were incubated at 37° C. for 3 h. For staurosporine killing, cells were resuspended at 10^6 cells/ml in their normal growth medium and staurosporine (2.5 μM) was added directly to the cell suspension. Cells were incubated at 37° C. for 2, 4 and 8 h. DNA fragmentation was monitored by flow cytometric analysis via the terminal deoxynucleotidyltransferase-mediated dUTP-biotin nick end labeling (TUNEL) method. Flow cytometric analysis was performed on a Becton Dickinson FACScanθ flow cytometer equipped with an argon-ion laser with 15 mW of excitation at 488 nm. Emission wavelengths were detected through the FL1 channel. Data were acquired on 10,000 cells per sample with light scatter signals at linear gain and fluorescence signals at logarithmic gain. Percent specific TUNEL positive cells was calculated as follows: [(% positive labeling cells with grB and AD−% positive labeling cells without grB and AD)/(AD−% positive labeling cells without grB and AD)]×100. Phosphatidylserine externalization was monitored using the ApoAlertθ annexin V apoptosis kit (Clontech) according to the protocol provided by the manufacturer. Flow cytometric analysis was performed on a Becton Dickinson FACScanθ flow cytometer equipped with an argon-ion laser with 15 mW of excitation at 488 nm. Emission wavelengths were detected through the FL1 channel. Data were acquired on 10,000 cells per sample with light scatter signals at linear gain and fluorescence signals at logarithmic gain. Percent specific Annexin V positive cells was calculated as follows: [(% positive labeling cells with grB and AD−% positive labeling cells without grB and AD)/(AD−% positive labeling cells without grB and AD)]×100.

[4] = grB treated with catalytic subunit of protein phosphatase-1 (data not shown)
[5] = all the carcinoma cell lines, 3 hr

grB: Human serine proteinase granzyme B purified from the cytolytic granules of YT-Indy cells
enzymatic activity of grB [1, 4]: did not lose
enzymatic activity of grB ([1]; grB treated with phosphatase in a phosphate-free buffer): no effect
percentage of TUNEL/annexin V positive cells (Jurkat cells; Jurkat cells incubated with only grB (no AD)): under 8%
TUNEL and annexin V labeling (Jurkat cells; Jurkat cells, 3 hr, varying concentrations of grB and AD (Example 2)): significant TUNEL and annexin V labeling
ability to induce apoptosis of Jurkat cells (Jurkat cells; [4]): did not lose
concentration sufficient to elicit effective Jurkat cell killing (Jurkat cells; granule-purified grB with AD (FIG. 3C)): less than 1 ng/ml
binding to L cells and the MPR-transfected L cell lines [2]: dramatic decrease in binding
DNA fragmentation or phosphatidylserine externalization ([3]; MCF-7 cells, granzyme B and adenovirus): no DNA-fragmentation or phosphatidylserine externalization could be detected
phosphatidylserine exposure or DNA fragmentation ([3]; T47-D cells, granzyme B and adenovirus): unable to detect any phosphatidylserine exposure or DNA fragmentation
annexin V binding after grB and AD [3, 5]: did not bind annexin V
grB and AD-mediated DNA fragmentation [3, 5]: resistant
